In paper PMC7619385 (ACS infectious diseases, 2025):
Like-named read-outs stand apart in the source and are kept apart here.

Columns and labels:
[1] = target: T1, LmxCLK1 (Leishmania mexicana, UniProt E9AMP2); assay: biochemical; assay type: binding
T1 sequence (E9AMP2 1-422): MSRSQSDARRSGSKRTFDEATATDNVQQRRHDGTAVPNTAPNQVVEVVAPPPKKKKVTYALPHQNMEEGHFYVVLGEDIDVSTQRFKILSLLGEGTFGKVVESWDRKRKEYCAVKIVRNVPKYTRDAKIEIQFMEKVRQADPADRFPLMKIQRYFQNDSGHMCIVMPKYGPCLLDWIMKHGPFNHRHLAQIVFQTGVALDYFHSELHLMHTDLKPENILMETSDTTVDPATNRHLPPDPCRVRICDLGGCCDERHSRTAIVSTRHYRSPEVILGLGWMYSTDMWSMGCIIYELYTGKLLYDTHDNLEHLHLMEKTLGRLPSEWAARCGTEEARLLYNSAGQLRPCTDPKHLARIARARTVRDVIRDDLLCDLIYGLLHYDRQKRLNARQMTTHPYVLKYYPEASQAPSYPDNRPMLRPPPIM

[2] = target: NLuc::LmxCLK1 (Leishmania mexicana, UniProt E9AMP2); assay: cell-based; assay type: cell-based; conditions: for Target occupancy Run 1 / Target occupancy Run 2 / Target occupancy Average: 10 µM compound, tracer SV366, promastigotes; for Target occupancy Average: mean of two experiments
How it was run: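 NanoBRET tracer displacement in live cells expressing NLuc-tagged CLK1, test compounds at 10 µM fixed, 1% DMSO final. Acceptor/donor emission (610/460 nm) ratio gives mBRET, converted to blank-corrected probe occupancy (%); probe KD from single-site saturation binding fits.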

[3] = DSF, 10 µM compound, 2 µM LmxCLK1, Run 1
[4] = DSF, 10 µM compound, 2 µM LmxCLK1, Run 2
[5] = DSF, 10 µM compound, 2 µM LmxCLK1, mean of two runs
[6] = DSF, 10 µM compound, 2 µM LmxCLK1, Run 1, read-out: ΔTm Run 1
[7] = DSF, 10 µM compound, 2 µM LmxCLK1, Run 2, read-out: ΔTm Run 2
[8] = DSF, 10 µM compound, 2 µM LmxCLK1, mean of two runs, read-out: ΔTm Average
[9] = read-out: Target occupancy Average
[10] = read-out: Target occupancy Run 1
[11] = read-out: Target occupancy Run 2

Row | Compound | ΔTm Run 1 [1, 3] | ΔTm Run 2 [1, 4] | ΔTm Average [1, 5] | Target occupancy Run 1 [2] | Target occupancy Run 2 [2] | Target occupancy Average [2] | ΔTm Average [1] | ΔTm Run 1 [1] | ΔTm Run 2 [1] | ΔTm at 10 µM [1, 6] | ΔTm at 10 µM [1, 7] | ΔTm at 10 µM [1, 8] | receptor occupancy at 10 µM [2, 9] | receptor occupancy at 10 µM [2, 10] | receptor occupancy at 10 µM [2, 11]
1 | COc1cccc(-c2cc(=O)c3ccccc3o2)c1N [PD98059] | 0.0 °C | -0.2 °C | -0.1 °C | -16.6% | -0.7% | -8.6% |  |  |  |  |  |  |  |  | 
2 | COc1cc(Nc2ncc(F)c(Nc3ccc4c(n3)NC(=O)C(C)(C)O4)n2)cc(OC)c1OC [R406] |  |  |  | 6.2% | -5.8% | 0.2% | 0.4 °C | 0.4 °C | 0.3 °C |  |  |  |  |  | 
3 | CNC(=O)c1ccccc1Nc1nc(Nc2ccc(N3CCOCC3)cc2OC)ncc1Cl [TAE226 (NVP-TAE226)] | 0.2 °C | -0.1 °C | 0.0 °C | -26.7% | -0.7% | -13.7% |  |  |  |  |  |  |  |  | 
4 | Cc1ccc2nc(NCCN)c3ncc(C)n3c2c1 [BMS-345541] |  |  |  |  |  |  |  |  |  | -0.1 °C | -0.3 °C | -0.2 °C | -1.1% | 7.2% | -9.4%
5 | CNC(=O)c1cccc(-c2ccc3c(N4CCOC[C@@H]4C)nc(N4CCOC[C@@H]4C)nc3n2)c1 [AZD2014] |  |  |  |  |  |  |  |  |  | 0.3 °C | -0.3 °C | 0 °C | -1.4% | 8.9% | -11.6%
6 | COc1cc(Nc2c(C#N)cnc3cc(OCCCN4CCN(C)CC4)c(OC)cc23)c(Cl)cc1Cl [Bosutinib (SKI-606)] | 0.5 °C | 0.6 °C | 0.5 °C | 7.7% | -36.0% | -14.2% |  |  |  |  |  |  |  |  | 
7 | Cn1cc(C2=C(c3cn(C4CCN(Cc5ccccn5)CC4)c4ccccc34)C(=O)NC2=O)c2ccccc21 [Enzastaurin (LY317615)] | 0.1 °C | -0.2 °C | 0.0 °C | 2.6% | -1.9% | 0.3% |  |  |  |  |  |  |  |  | 
8 | Cc1ccccc1CN1C(=O)C2=C(CCN(Cc3ccccc3)C2)N2CCN=C12 [TIC10] |  |  |  | 4.1% | -6.1% | -1.0% | 0.2 °C | 0.2 °C | 0.2 °C |  |  |  |  |  | 
9 | CNC(=O)c1cc(Oc2ccc(NC(=O)Nc3ccc(Cl)c(C(F)(F)F)c3)c(F)c2)ccn1 [Regorafenib (BAY 73-4506)] | 0.1 °C | -0.3 °C | -0.1 °C | -4.0% | -5.3% | -4.6% |  |  |  |  |  |  |  |  | 
10 | C[C@@H]1COC(Nc2ccc3ncnc(Nc4ccc(OCc5nccs5)c(Cl)c4)c3c2)=N1 [Varlitinib] |  |  |  |  |  |  |  |  |  | 0.2 °C | 0 °C | 0.1 °C | -0.8% | 2.7% | -4.3%
